Source: patent publication EP4741420A1, “PHARMACEUTICAL COMPOSITION FOR PREVENTING OR TREATING OBESITY COMPRISING GLP ANALOGUE AS ACTIVE INGREDIENT” (priority 2023, dated 2025)
Peptide text beside a SMILES is read from it.

Experiments:
[1] = Mouse PK after single subcutaneous administration, LC-MS/MS of plasma; type: in vivo, mice; settings: male, C57BL/6N, mouse, in vivo, sc
Experimental: Each of the experimental groups and the control was subcutaneously administered once to the dorsal area of a total of 12 mice using a 1 mL syringe equipped with a 26-gauge needle at a dose of 0.2 mg/5 mL/kg. After drug administration, approximately 0.04 to 0.05 mL of blood was collected per individual at the time scheduled for the orbital vein (4 mice were alternately sampled), and the blood collection times were 1, 2, 4, 8, 24 ,32 ,48, 56, 72, 96, and 120 hours. All plasma samples were analyzed using a self-developed LC-MS/MS assay. Pharmacokinetic analysis of blood drugs was performed using non-compartmental analysis, and analysis of pharmacokinetic parameters was performed using Phoenix WinNolin 64 (Version. 8.3.5 340).

[2] = test system: diet-induced obesity (DIO) mouse model; assay: DIO mouse model QD: liver damage markers AST/ALT (Example 8-1); type: in vivo; settings: serum, DIO mice, QD (once daily), 45 nmol/kg/dose
Experimental: The anti-obesity effect in the liver was analyzed for the same materials used in Example 7. Specifically, liver damage marker (AST/ALT) analysis, liver weight/fatty liver examination, hepatic triglyceride measurement, and liver ORO staining analysis were performed.
To analyze the liver damage markers, AST/ALT, blood biochemical analysis was performed on the blood of a material-treated obese mouse model. Specifically, the collected blood was divided into two tubes, approximately 200 µL of the blood was put into each EDTA tube, and the remaining volume was injected into a vacutainer tube containing a coagulant. Blood collected in an EDTA tube was used to measure glycated hemoglobin on the same day, while the blood collected in the vacutainer tube was left at room temperature for 15 to 20 minutes to coagulate, and then centrifuged for 10 minutes to obtain serum. The serum was used for blood biochemical analysis.

[3] = test system: diet-induced obesity (DIO) mouse model; assay: DIO mouse model QD: weight loss and cumulative food intake (Example 7-1); type: in vivo; settings: DIO mice, QD (once daily), 4-week administration, 45 nmol/kg/dose
Experimental: The obesity treatment effect of the long-acting GLP analog prepared in Example 1 was evaluated. Specifically, an obesity animal model was prepared to confirm the obesity treatment effect, and after administering a certain amount of material, the model was subjected to measurement of a body weight and the change in food intake, and biochemical tests. First, to establish a diet-induced obesity mouse model, C57BL/6 DIO mice were fed a high-fat diet for 12 weeks, resulting in a body weight that was 130% that of the control (DIO model). Afterward, the mice were grouped at a specific time point to determine the average weight of the DIO model (46.2±2.2), followed by drug administration to the mice for 4 weeks. Here, the body weight and food intake were measured daily.
The anti-obesity effects of SEQ ID NO: 1 prepared in Example 1, and SEQ ID NOs: 6 and 7 prepared in Example 4 were analyzed. […] In addition, as an experimental model, a diet-induced obesity (DIO) mouse model fed a high-fat diet for 3 months was used.
To analyze the anti-obesity effect, first, the comparative analysis of weight loss effect and cumulative food intake was conducted. The experimental method was the same as described in Example 3.

C57BL/6 DIO mice = assay: Diet-induced obesity mouse model: body weight and food intake (Example 3); type: in vivo; settings: 4 weeks administration, 0.20 mg/kg/dose

**Q.** With `CCCCCCCCCCCCCCCC(=O)N[C@@H](CCC(=O)NCCCC[C@H](NC(=O)[C@H](CCCCN)NC(=O)[C@H](CC(=O)O)NC(=O)[C@@H](NC(=O)[C@@H](NC(=O)[C@H](CCCCN)NC(=O)[C@@H](NC(=O)[C@H](CCC(N)=O)NC(=O)[C@@H](NC(=O)[C@H](CC(C)C)NC(=O)[C@H](Cc1c[nH]c2ccccc12)NC(=O)[C@H](CC(N)=O)NC(=O)[C@@H](NC(=O)[C@H](Cc1ccccc1)NC(=O)[C@H](CC(=O)O)NC(=O)[C@H](CCCNC(=N)N)NC(=O)[C@H](C)NC(=O)[C@H](C)NC(=O)[C@H](CC(C)C)NC(=O)[C@H](C)NC(=O)[C@H](CC(=O)O)NC(=O)[C@H](CC(C)C)NC(=O)[C@H](Cc1ccc(O)cc1)NC(=O)[C@@H](NC(=O)[C@H](CO)NC(=O)[C@H](CC(C)C)NC(=O)[C@H](CC(=O)O)NC(=O)[C@H](CO)NC(=O)[C@@H](NC(=O)[C@H](Cc1ccccc1)NC(=O)[C@@H](NC(=O)CNC(=O)[C@H](CCC(=O)O)NC(=O)CNC(=O)[C@@H](N)Cc1c[nH]cn1)[C@@H](C)O)[C@@H](C)O)[C@@H](C)O)[C@@H](C)CC)[C@@H](C)CC)[C@@H](C)O)[C@@H](C)CC)[C@@H](C)O)C(=O)O)C(=O)O` [HU020K2FA] (HELM PEPTIDE1{H.G.E.G.T.F.T.S.D.L.S.T.Y.L.D.A.L.A.A.R.D.F.I.N.W.L.I.Q.T.K.I.T.D.K.K}|PEPTIDE2{[CCCCCCCCCCCCCCCC(=O)[*:2]].[gGlu]}$PEPTIDE1,PEPTIDE2,35:R3-2:R2$$$V2.0; N-terminus and C-terminus assumed) as the compound, how does the Tmax [1] read?
**A.** 8 h

**Q.** What about the half-life [1] of the same compound?
**A.** 396 min

**Q.** And the “ALT (U/L)” value [2]?
**A.** 34.7±5.9 U/L

**Q.** What about the “AST (U/L)” value [2] of the same compound?
**A.** 68.5±9.2 U/L

**Q.** What about the “Comparison of weight change (%)” value [3] of the same compound?
**A.** -16.0±3.2%

**Q.** And the “Weight” value [3]?
**A.** 37.5 ± 2.6 g

**Q.** What about the “Weight (%) (Normalized to DIO vehicle)” value [3] of the same compound?
**A.** 80.3±4.4%

**Q.** What about the “Food intake” value ([3]; cumulative) of the same compound?
**A.** 16.0 ± 1.8 g

**Q.** What about the “Cumulative food intake” value (C57BL/6 DIO mice) of the same compound?
**A.** 55.3 ± 4.0 g

**Q.** What about the “Weight” value (C57BL/6 DIO mice) of the same compound?
**A.** 36.6 ± 4.0 g

**Q.** And the “Weight change (%)” value (C57BL/6 DIO mice; compared to day 0)?
**A.** -19.4±4.7%
